{
  "source": "PubChem BioAssay AID1259409",
  "about": "(Chemical Carcinogenesis Research Information System (CCRIS), 2018)",
  "origin": "cited, not measured here",
  "tested_on": "rodent chemically induced tumor inhibition, incidence and multiplicity",
  "experiment": "CCRIS tumor inhibitor studies",
  "data": [
    {"smiles": "O=C(OC[C@@H]1O[C@H](OC(=O)c2cc(O)c(O)c(OC(=O)c3cc(O)c(O)c(O)c3)c2)[C@@H](OC(=O)c2cc(O)c(O)c(OC(=O)c3cc(O)c(O)c(O)c3)c2)[C@H](OC(=O)c2cc(O)c(O)c(OC(=O)c3cc(O)c(O)c(O)c3)c2)[C@H]1OC(=O)c1cc(O)c(O)c(OC(=O)c2cc(O)c(O)c(O)c2)c1)c1cc(O)c(O)c(OC(=O)c2cc(O)c(O)c(O)c2)c1", "values": [
      {"measurement": "tumour outcome (control, treated, inhibition, significance)", "setting": "Carcinogen: 7,12-DIMETHYLBENZ[A]ANTHRACENE, 57-97-6, Dose [Inhibitor]: 0, 17 MG 2/WK FOR 20 WK APPLIED 20 MIN PRIOR TO EACH PROMOTER DOSE (STUDY DURATION: 22 WK), Route [Inhibitor]: DERMAL, Species: (36,?)/(36,?), Strain/Sex: CF-1/FEMALE, Target Tissue: Type of Lesion: SKIN: PAPILLOMA, Dose [Carcinogen]: 25.6 UG IN 0.2 ML ACETONE ONCE, Promoter: 12-O-TETRADECANOYLPHORBOL-13-ACETATE, 16561-29-8", "value": "90%, 65%, 28%, not calculated"},
      {"measurement": "tumour outcome (control, treated, inhibition, significance)", "setting": "Carcinogen: 7,12-DIMETHYLBENZ[A]ANTHRACENE, 57-97-6, Dose [Inhibitor]: 0, 20 UMOL IN 0.4 ML ACETONE 20 MIN PRIOR TO EACH PROMOTER DOSE (STUDY DURATION: 47 WK), Route [Inhibitor]: DERMAL, Species: MOUSE, Strain/Sex: CF-1/FEMALE, Target Tissue: Type of Lesion: SKIN: CARCINOMA, Dose [Carcinogen]: 100 NMOL IN 0.2 ML ACETONE ONCE", "value": "66%, 0%, 100%, not calculated"},
      {"measurement": "tumour outcome (control, treated, inhibition, significance)", "setting": "Carcinogen: 7,12-DIMETHYLBENZ[A]ANTHRACENE, 57-97-6, Dose [Inhibitor]: 0, 20 UMOL IN 0.4 ML ACETONE 20 MIN PRIOR TO EACH PROMOTER DOSE (STUDY DURATION: 47 WK), Route [Inhibitor]: DERMAL, Species: MOUSE, Strain/Sex: CF-1/FEMALE, Target Tissue: Type of Lesion: SKIN: PAPILLOMA, Dose [Carcinogen]: 100 NMOL IN 0.2 ML ACETONE ONCE", "value": "94%, 23%, 76%, not calculated"},
      {"measurement": "tumour outcome (control, treated, inhibition, significance)", "setting": "Carcinogen: 7,12-DIMETHYLBENZ[A]ANTHRACENE, 57-97-6, Dose [Inhibitor]: 0, 34 MG 2/WK FOR 2 WK APPLIED 20 MIN PRIOR TO EACH TPA DOSE (STUDY DURATION: 22 WK), Route [Inhibitor]: DERMAL, Species: MOUSE, Strain/Sex: SENCAR/FEMALE, Target Tissue: Type of Lesion: SKIN: PAPILLOMA, Dose [Carcinogen]: 6.4 UG IN 0.2 ML ACETONE ONCE, Promoter: 12-O-TETRADECANOYLPHORBOL-13-ACETATE, 16561-29-8, MEZEREIN, 34807-41-5, Promoter: 12-O-TETRADECANOYLPHORBOL-13-ACETATE, 16561-29-8, MEZEREIN, 34807-41-5", "value": "90%, 96%, -7%, not calculated"},
      {"measurement": "tumour outcome (control, treated, inhibition, significance)", "setting": "Carcinogen: 7,12-DIMETHYLBENZ[A]ANTHRACENE, 57-97-6, Dose [Inhibitor]: 0, 34 MG 2/WK FOR 18 WK APPLIED 20 MIN PRIOR TO EACH MEZEREIN DOSE (STUDY DURATION: 22 WK), Route [Inhibitor]: DERMAL, Species: MOUSE, Strain/Sex: SENCAR/FEMALE, Target Tissue: Type of Lesion: SKIN: PAPILLOMA, Dose [Carcinogen]: 6.4 UG IN 0.2 ML ACETONE ONCE, Promoter: 12-O-TETRADECANOYLPHORBOL-13-ACETATE, 16561-29-8, MEZEREIN, 34807-41-5, Promoter: 12-O-TETRADECANOYLPHORBOL-13-ACETATE, 16561-29-8, MEZEREIN, 34807-41-5", "value": "90%, 25%, 72%, not calculated"},
      {"measurement": "tumour outcome (control, treated, inhibition, significance)", "setting": "Carcinogen: (+/-)-7BETA,8ALPHA-DIHYDROXY-9ALPHA,10ALPHA-EPOXY-7,8,9,10- TETRAHYDROBENZO[A]PYRENE, 58917-67-2, Dose [Inhibitor]: 3000 NMOL IN 0.2 ML ACETONE 1/D FOR 7 D (STUDY DURATION: 18 WK), Route [Inhibitor]: DERMAL, Species: MOUSE, Strain/Sex: SENCAR/FEMALE, Target Tissue: Type of Lesion: SKIN: TUMOR, Dose [Carcinogen]: 200 NMOL IN 0.2 ML ACETONE ONCE 30 MIN POST LAST INHIBITOR DOSE, Promoter: 12-O-TETRADECANOYLPHORBOL-13-ACETATE, 16561-29-8", "value": "75%, 60%, 20%, not significant"},
      {"measurement": "tumour outcome (control, treated, inhibition, significance)", "setting": "Carcinogen: BENZO[A]PYRENE, 50-32-8, Dose [Inhibitor]: 1% AQUEOUS SOLUTION 3/WK FOR A TOTAL OF 80 APPLICATIONS FOLLOWED BY AT LEAST 365 D OBSERVATION PERIOD (STUDY DURATION: 5, Route [Inhibitor]: DERMAL, Species: MOUSE, Strain/Sex: CD-1/MALE, FEMALE, Target Tissue: Type of Lesion: SKIN: CARCINOMA, SQUAMOUS CELL PAPILLOMA, SEBACEOUS ADENOMA, BASAL CELL TUMOR, KERATOACANTHOMA, Dose [Carcinogen]: 0.53-0.6 MG ONCE PRIOR TO START OF AGENT TREATMENT, Promoter: NONE USED", "value": "17/50 (34%), 15/50 (30%), 12%, not significant"},
      {"measurement": "tumour outcome (control, treated, inhibition, significance)", "setting": "Carcinogen: BENZO[A]PYRENE, 50-32-8, Dose [Inhibitor]: 1% IN DIET BEGINNING 45 D PRIOR TO CARCINOGEN (STUDY DURATION: 36 WK), Route [Inhibitor]: ORAL, Species: MOUSE, Strain/Sex: SENCAR/FEMALE, Target Tissue: Type of Lesion: FORESTOMACH: PAPILLOMA, Dose [Carcinogen]: 100 MG/KG IN 0.2 ML CORN OIL 2/WK FOR 4 WK, Promoter: NONE USED", "value": "27/30 (90%), 19/30 (63%), 30%, not calculated"},
      {"measurement": "tumour outcome (control, treated, inhibition, significance)", "setting": "Carcinogen: BENZO[A]PYRENE, 50-32-8, Dose [Inhibitor]: 1% IN DIET BEGINNING 45 D PRIOR TO CARCINOGEN (STUDY DURATION: 36 WK), Route [Inhibitor]: ORAL, Species: MOUSE, Strain/Sex: SENCAR/FEMALE, Target Tissue: Type of Lesion: LUNG: ADENOMA, Dose [Carcinogen]: 100 MG/KG IN 0.2 ML CORN OIL ONCE, Promoter: NONE USED", "value": "27/30 (90%), 18/30 (60%), 33%, not calculated"},
      {"measurement": "tumour outcome (control, treated, inhibition, significance)", "setting": "Carcinogen: DIMETHYLBENZ[A]ANTHRACENE, 57-97-6, Dose [Inhibitor]: 1% IN DIET BEGINNING 45 D PRIOR TO CARCINOGEN DOSE AND CONTINUED FOR 10 D POST CARCINOGEN (STUDY DURATION: 16 WK), Route [Inhibitor]: ORAL, Species: MOUSE, Strain/Sex: SENCAR/FEMALE, Target Tissue: Type of Lesion: SKIN: PAPILLOMA, Dose [Carcinogen]: 10 UG IN 0.2 ML ACETONE ONCE, Promoter: TPA, 16561-29-8", "value": "30/30 (100%), 30/30 (100%), 0%, not calculated"},
      {"measurement": "tumour outcome (control, treated, inhibition, significance)", "setting": "Carcinogen: UV IRRADIATION, Dose [Inhibitor]: 0, 200 UG IN 200 µL ACETONE 3/WK FOR DURATION OF STUDY BEGINNING 2 WK PRIOR TO UV IRRADIATION (STUDY DURATION: 29 WK), Route [Inhibitor]: DERMAL, Species: MOUSE, Strain/Sex: BALB/CANNTACFBR/FEMALE, Target Tissue: Type of Lesion: SKIN: TUMOR, Dose [Carcinogen]: 6.94 J/M2/SEC 30 MIN/D 5 D/WK FOR 17.5 WK, Promoter: NONE USED", "value": "75%, 42%, 44%, p=0.028"}
    ]}
  ]
}
